In US12378198B2, “Crystalline l-arginine salt of (R)-2-(7-(4-cyclopentyl-3-(trifluoromethyl)benzyloxy)-1,2,3,4-tetrahydrocyclo-penta [b]indol-3-yl)acetic acid(compound1) for use in SIPI receptor-associated disorders” (Arena Pharmaceuticals, Inc., priority 2015, dated 2025):
Counter-ions that a name gives are not always drawn. Like-named read-outs stand apart in the source and are kept apart here. One block for each molecule: values may come before it.

Assays:
[1] = BET specific surface area, nitrogen adsorption; format: physicochemical; conditions: N2 adsorption at 77.3 K, eleven point method, P/P0 about 0.05 to about 0.3, degassed at 25° C. for 960 minutes
From the text: In addition to the techniques described herein, specific surface can also be used to characterize the free-plates of the present invention. Accordingly, the specific surface area values disclosed in the present invention have been obtained by means of a specific surface area analysis technique based on the BET (Brunauer, Emmett and Teller) theory, which is a well-accepted theory known in the art for the calculation of surface areas of solids by means of measuring their physical adsorption of gas molecules (see: Brunauer, S.; Emmett, P. H.; and Teller, E.; J. Am. Chem. Soc., 1938, 60, 309). In particular, the specific surface area values measured in the present invention have been calculated from the BET surface area plot obtained by measuring the quantity of nitrogen gas molecules adsorbed by a weighted amount of solid at different relative pressures (P/P0) within the range 0.05-0.3 (P/P0), at 77.3 K. The measurement of the adsorption of gas molecules was carried out by means of a Micromeritics™ TriStar II BET surface analyzer having the characteristics as set out below in Example 14. Namely, nitrogen gas was used for the adsorption measurement. The sample for each analysis was degassed at 25° C. for 960 minutes under vacuum (i.e., 100 mm/Hg). The determination of the adsorption of nitrogen was measured at 77.3 K at eleven relative pressures (P/P0) sufficiently dispersed within the range of about 0.05 to about 0.30 (i.e. eleven absolute pressures in the range of about 36 mm Hg to about 223 mm Hg relative to the saturated pressure at the time of measurement that ranged from about 738 mmHg to about 743 mmHg).
In general, the specific surface areas for Lots A1-A9 (plates) and H1-H6 (spherulites) were determined by physical adsorption of nitrogen gas on the surface of the sample from each lot using the well-established technique based on the Brunauer, Emmett, and Teller theory.
The BET surface areas for the samples were measured by Micromeritics Pharmaceutical Services using a Micromeritics™ TriStar II BET surface area analyzer (MicroActive for TriStar II Plus 2.02 Software™). The samples were degassed at 25° C. for 960 minutes under vacuum (i.e., 100 mm/Hg). The determination of the adsorption of N2 at 77.3 K was measured using a BET surface area eleven point method with relative pressures in the range of about 0.05 to about 0.3 (P/P0) for a weighed amount of each sample, see TABLE M1, TABLE M2, and TABLE N below. The analysis was performed per ISO9277.

[2] = Dynamic moisture-sorption (DMS) analysis; format: physicochemical; conditions: DMS at 25° C.
Procedure: A dynamic moisture-sorption (DMS) analysis was performed on representative Lot A2 (see, Example 3, TABLE A) of the L-arginine salt of Compound 1 having the plate morphology and representative Lot H2 (prepared in a similar manner as described in Example 8, Method 2 Steps G and H in WO2011/094008; and described in TABLE K, Example 8 herein) of the L-arginine salt of Compound 1 having the spherulite morphology. […] By comparison the L-arginine salt of Compound 1 (spherulite morphology) gained between 0.5% weight (adsorption cycle) and 0.7% weight (desorption cycle) at 90% RH and 25° C. […] DMS analysis was performed using a TA Instruments Q5000 SA (EQ2418). Instrument performance was verified in-house. Samples were added to a tared sample holder on the Q5000 SA balance. The sample was dried at 40° C. and then analyzed at 25° C. with an adsorption phase from 30% RH to 90% RH and a desorption phase from 90% RH to 10% RH.

S1P2 = S1P2 (Homo sapiens, UniProt O95136); conditions: read-out: EC50 β-arrestin; cited from earlier work
S1P2, sequence (O95136 whole entry, species assumed): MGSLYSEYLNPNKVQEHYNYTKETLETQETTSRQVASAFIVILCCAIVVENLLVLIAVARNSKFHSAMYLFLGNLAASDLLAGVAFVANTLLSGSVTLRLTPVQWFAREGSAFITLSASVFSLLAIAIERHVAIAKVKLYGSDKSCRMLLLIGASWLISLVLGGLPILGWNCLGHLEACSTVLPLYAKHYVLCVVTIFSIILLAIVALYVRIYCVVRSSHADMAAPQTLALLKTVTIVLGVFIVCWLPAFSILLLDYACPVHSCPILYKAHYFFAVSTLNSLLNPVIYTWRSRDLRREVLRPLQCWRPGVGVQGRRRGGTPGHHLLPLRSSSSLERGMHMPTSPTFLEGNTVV

S1P3 = S1P3 (Homo sapiens, UniProt Q99500); conditions: read-out: EC50 β-arrestin; cited from earlier work
S1P3, sequence (Q99500 whole entry, species assumed): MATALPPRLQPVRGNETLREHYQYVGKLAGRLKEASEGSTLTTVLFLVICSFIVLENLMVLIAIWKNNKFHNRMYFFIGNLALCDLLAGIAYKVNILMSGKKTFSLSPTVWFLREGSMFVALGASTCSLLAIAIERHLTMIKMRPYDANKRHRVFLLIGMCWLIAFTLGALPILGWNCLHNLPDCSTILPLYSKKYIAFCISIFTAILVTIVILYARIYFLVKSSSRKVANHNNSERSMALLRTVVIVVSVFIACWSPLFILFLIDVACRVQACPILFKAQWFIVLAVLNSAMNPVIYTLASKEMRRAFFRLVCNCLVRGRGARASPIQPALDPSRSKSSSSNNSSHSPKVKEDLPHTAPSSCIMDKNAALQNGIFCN

lymphocyte [3] = conditions: mouse; reflects total plasma concentration; read-out: calculated lymphocyte lowering IC50; cited from earlier work
lymphocyte [4] = conditions: rat; reflects total plasma concentration; read-out: calculated lymphocyte lowering IC50; cited from earlier work
lymphocyte [5] = conditions: dog; reflects total plasma concentration; read-out: calculated lymphocyte lowering IC50; cited from earlier work
lymphocyte [6] = conditions: monkey; reflects total plasma concentration; read-out: calculated lymphocyte lowering IC50; cited from earlier work
[7] = human; cited from earlier work
[8] = rat; cited from earlier work
[9] = test system: experimental autoimmune encephalomyelitis (EAE) model; conditions: cited from earlier work
[10] = test system: collagen induced arthritis (CIA) model; conditions: cited from earlier work
lymphocyte count = assay: Phase 1b clinical trial, lymphocyte count lowering in blood; format: in vivo, healthy volunteers
Procedure: The L-arginine salt of Compound 1 was selected for clinical evaluation. A randomized, double-blind, placebo-controlled Phase 1b clinical trial was conducted to evaluate the safety, tolerability, pharmacodynamics, and pharmacokinetics of multiple-ascending doses of the L-arginine salt of Compound 1 in five different dosing cohorts. A total of 50 healthy volunteers received the L-arginine salt of Compound 1 and 10 healthy volunteers received placebo for 21 days.

- BET Surface Area ([1]; listed as H4): 12.0 m^2/g
SMILES: O=C(O)C[C@H]1CCc2c1[nH]c1ccc(OCc3ccc(C4CCCC4)c(C(F)(F)F)c3)cc21 [Lot H4]

- weight gain at 90% RH (adsorption cycle) ([2]; 90% RH, adsorption cycle): 0.5 % weight
- weight gain at 90% RH (desorption cycle) ([2]; 90% RH, desorption cycle): 0.7 % weight
- BET Surface Area ([1]; listed as H2): 13.5 m^2/g
SMILES: O=C(O)C[C@H]1CCc2c1[nH]c1ccc(OCc3ccc(C4CCCC4)c(C(F)(F)F)c3)cc21 [Lot H2]

- BET Surface Area ([1]; listed as H6): 12.3 m^2/g
SMILES: O=C(O)C[C@H]1CCc2c1[nH]c1ccc(OCc3ccc(C4CCCC4)c(C(F)(F)F)c3)cc21 [Lot H6]

- BET Surface Area ([1]; listed as H1): 10.0 m^2/g
SMILES: O=C(O)C[C@H]1CCc2c1[nH]c1ccc(OCc3ccc(C4CCCC4)c(C(F)(F)F)c3)cc21 [Lot H1]

- BET Surface Area ([1]; listed as H3): 11.8 m^2/g
SMILES: O=C(O)C[C@H]1CCc2c1[nH]c1ccc(OCc3ccc(C4CCCC4)c(C(F)(F)F)c3)cc21 [Lot H3]

- BET Surface Area ([1]; listed as H5): 10.9 m^2/g
SMILES: O=C(O)C[C@H]1CCc2c1[nH]c1ccc(OCc3ccc(C4CCCC4)c(C(F)(F)F)c3)cc21 [Lot H5]

The next lines start with the molecule.

SMILES: O=C(O)C[C@H]1CCc2c1[nH]c1ccc(OCc3ccc(C4CCCC4)c(C(F)(F)F)c3)cc21 [Lot A6]
- BET Surface Area ([1]; listed as A6): 2.4 m^2/g

SMILES: O=C(O)C[C@H]1CCc2c1[nH]c1ccc(OCc3ccc(C4CCCC4)c(C(F)(F)F)c3)cc21 [Lot A2]
- hygroscopicity [2]: non-hygroscopic
- weight gain at 90% RH ([2]; 90% RH): 0.2 % weight
- BET Surface Area ([1]; listed as A2): 0.7 m^2/g

SMILES: O=C(O)C[C@H]1CCc2c1[nH]c1ccc(OCc3ccc(C4CCCC4)c(C(F)(F)F)c3)cc21 [Lot A1]
- BET Surface Area ([1]; listed as A1): 0.7 m^2/g

SMILES: O=C(O)C[C@H]1CCc2c1[nH]c1ccc(OCc3ccc(C4CCCC4)c(C(F)(F)F)c3)cc21 [Compound 1, (R)-2-(7-(4-cyclopentyl-3-(trifluoromethyl)benzyloxy)-1,2,3,4-tetrahydrocyclopenta[b]indol-3-yl)acetic acid]
- EC50 (S1P2): > 10000 nM
- EC50 (S1P3): > 10000 nM
- IC50 (lymphocyte [3]): 101 nM
- IC50 (lymphocyte [4]): 51 nM
- IC50 (lymphocyte [5]): 58 nM
- IC50 (lymphocyte [6]): 98 nM
- protein bound [7]: 97.8%
- protein bound [8]: 98.0%
- EAE disease, therapeutic administration ([9]; administered day 18 to day 37, all animals with severe disease at start, similar to fingolimod): reverse the disease relative to vehicle
- EAE disease onset and severity, prophylactic ([9]; prophylactic dosing, discontinued at day 25, relative to vehicle): prevented the onset and severity of disease relative to vehicle up to day 25
- histological parameters in knees and ankles ([10]; CIA rats): Improvement in histological parameters in the knees and ankles
- ankle diameters ([10]; prophylactic daily oral dose, day 17, similar to fingolimod or methotrexate): significant reduction in ankle diameters

SMILES: O=C(O)C[C@H]1CCc2c1[nH]c1ccc(OCc3ccc(C4CCCC4)c(C(F)(F)F)c3)cc21 [Lot A7]
- BET Surface Area ([1]; listed as A7): 1.9 m^2/g

SMILES: O=C(O)C[C@H]1CCc2c1[nH]c1ccc(OCc3ccc(C4CCCC4)c(C(F)(F)F)c3)cc21 [Lot A3]
- BET Surface Area ([1]; listed as A3): 1.5 m^2/g

SMILES: O=C(O)C[C@H]1CCc2c1[nH]c1ccc(OCc3ccc(C4CCCC4)c(C(F)(F)F)c3)cc21 [Lot A5]
- BET Surface Area ([1]; listed as A5): 0.8 m^2/g

SMILES: O=C(O)C[C@H]1CCc2c1[nH]c1ccc(OCc3ccc(C4CCCC4)c(C(F)(F)F)c3)cc21 [Lot A9]
- BET Surface Area ([1]; listed as A9): 3.1 m^2/g

SMILES: O=C(O)C[C@H]1CCc2c1[nH]c1ccc(OCc3ccc(C4CCCC4)c(C(F)(F)F)c3)cc21 [Lot A8]
- BET Surface Area ([1]; listed as A8): 3.0 m^2/g

SMILES: O=C(O)C[C@H]1CCc2c1[nH]c1ccc(OCc3ccc(C4CCCC4)c(C(F)(F)F)c3)cc21 [Lot A4]
- BET Surface Area ([1]; listed as A4): 1.0 m^2/g

SMILES: O=C(O)C[C@H]1CCc2c1[nH]c1ccc(OCc3ccc(C4CCCC4)c(C(F)(F)F)c3)cc21 [L-arginine salt of Compound 1, L-arginine salt of (R)-2-(7-(4-cyclopentyl-3-(trifluoromethyl)benzyloxy)-1,2,3,4-tetrahydrocyclo-penta[b]indol-3-yl)acetic acid]
- lymphocyte count, mean decrease from baseline (lymphocyte count; multiple-ascending doses for 21 days, dose-dependent): up to 69%
- lymphocyte count recovery to baseline (lymphocyte count; on average, after conclusion of dosing): within one week
